From ChEMBL document CHEMBL1201862, “PubChem BioAssay data set” (2004)
Calls of active or inactive are those of the source.

Legend:
[1] = molecular target: Leucine-rich repeat serine/threonine-protein kinase 2 (Homo sapiens, UniProt Q5S007); assay type: functional;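 also: value from a broad kinome-wide panel profiling study in which LRRK2 was one of the kinases tested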
LIM domain kinase 1 = LIM domain kinase 1 (Homo sapiens, UniProt P53667); assay: Navigating the Kinome. Panel member name: LIMK1; assay type: functional
[2] = molecular target: High affinity nerve growth factor receptor (Homo sapiens, UniProt P04629); assay type: functional;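 also: NTRK1 tested as one member of a kinome-wide profiling panel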
[3] = molecular target: Dual specificity protein kinase CLK2 (Homo sapiens, UniProt P49760); assay type: functional
[4] = molecular target: Fibroblast growth factor receptor 1 (Homo sapiens, UniProt P11362); assay type: functional
[5] = molecular target: Tyrosine-protein kinase Fyn (Homo sapiens, UniProt P06241); assay type: functional
[6] = molecular target: Dual specificity mitogen-activated protein kinase kinase 2 (Homo sapiens, UniProt P36507); assay: Navigating the Kinome. Panel member name: MAP2K2; assay type: functional
Chain of Dual specificity mitogen-activated protein kinase kinase 2 (P36507 whole entry): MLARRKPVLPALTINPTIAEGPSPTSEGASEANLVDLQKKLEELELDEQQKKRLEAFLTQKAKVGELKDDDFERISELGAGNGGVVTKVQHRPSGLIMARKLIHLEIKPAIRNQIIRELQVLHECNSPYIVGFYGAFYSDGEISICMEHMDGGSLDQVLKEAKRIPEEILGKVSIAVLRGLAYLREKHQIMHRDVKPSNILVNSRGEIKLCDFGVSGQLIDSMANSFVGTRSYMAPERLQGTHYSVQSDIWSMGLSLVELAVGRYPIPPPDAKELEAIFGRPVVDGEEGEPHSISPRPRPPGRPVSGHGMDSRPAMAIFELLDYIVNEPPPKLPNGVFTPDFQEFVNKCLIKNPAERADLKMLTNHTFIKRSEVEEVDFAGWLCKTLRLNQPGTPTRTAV

[7] = molecular target: Platelet-derived growth factor receptor alpha (Homo sapiens, UniProt P16234); assay: Navigating the Kinome. Panel member name: PDGFRA; assay type: functional
[8] = molecular target: Rho-associated protein kinase 1 (Homo sapiens, UniProt Q13464); assay type: functional;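 also: measured within a broad kinome-wide panel profiling many kinases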
[9] = molecular target: Mitogen-activated protein kinase kinase kinase kinase 2 (Homo sapiens, UniProt Q12851); assay type: functional;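 also: measured as one member of a kinome-wide kinase panel, with MAP4K2 as the panel entry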
[10] = molecular target: Vascular endothelial growth factor receptor 1 (Homo sapiens, UniProt P17948); assay type: functional;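 also: measured within a kinome-wide profiling panel, FLT1 as the panel member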
Chain of Vascular endothelial growth factor receptor 1 (P17948 whole entry): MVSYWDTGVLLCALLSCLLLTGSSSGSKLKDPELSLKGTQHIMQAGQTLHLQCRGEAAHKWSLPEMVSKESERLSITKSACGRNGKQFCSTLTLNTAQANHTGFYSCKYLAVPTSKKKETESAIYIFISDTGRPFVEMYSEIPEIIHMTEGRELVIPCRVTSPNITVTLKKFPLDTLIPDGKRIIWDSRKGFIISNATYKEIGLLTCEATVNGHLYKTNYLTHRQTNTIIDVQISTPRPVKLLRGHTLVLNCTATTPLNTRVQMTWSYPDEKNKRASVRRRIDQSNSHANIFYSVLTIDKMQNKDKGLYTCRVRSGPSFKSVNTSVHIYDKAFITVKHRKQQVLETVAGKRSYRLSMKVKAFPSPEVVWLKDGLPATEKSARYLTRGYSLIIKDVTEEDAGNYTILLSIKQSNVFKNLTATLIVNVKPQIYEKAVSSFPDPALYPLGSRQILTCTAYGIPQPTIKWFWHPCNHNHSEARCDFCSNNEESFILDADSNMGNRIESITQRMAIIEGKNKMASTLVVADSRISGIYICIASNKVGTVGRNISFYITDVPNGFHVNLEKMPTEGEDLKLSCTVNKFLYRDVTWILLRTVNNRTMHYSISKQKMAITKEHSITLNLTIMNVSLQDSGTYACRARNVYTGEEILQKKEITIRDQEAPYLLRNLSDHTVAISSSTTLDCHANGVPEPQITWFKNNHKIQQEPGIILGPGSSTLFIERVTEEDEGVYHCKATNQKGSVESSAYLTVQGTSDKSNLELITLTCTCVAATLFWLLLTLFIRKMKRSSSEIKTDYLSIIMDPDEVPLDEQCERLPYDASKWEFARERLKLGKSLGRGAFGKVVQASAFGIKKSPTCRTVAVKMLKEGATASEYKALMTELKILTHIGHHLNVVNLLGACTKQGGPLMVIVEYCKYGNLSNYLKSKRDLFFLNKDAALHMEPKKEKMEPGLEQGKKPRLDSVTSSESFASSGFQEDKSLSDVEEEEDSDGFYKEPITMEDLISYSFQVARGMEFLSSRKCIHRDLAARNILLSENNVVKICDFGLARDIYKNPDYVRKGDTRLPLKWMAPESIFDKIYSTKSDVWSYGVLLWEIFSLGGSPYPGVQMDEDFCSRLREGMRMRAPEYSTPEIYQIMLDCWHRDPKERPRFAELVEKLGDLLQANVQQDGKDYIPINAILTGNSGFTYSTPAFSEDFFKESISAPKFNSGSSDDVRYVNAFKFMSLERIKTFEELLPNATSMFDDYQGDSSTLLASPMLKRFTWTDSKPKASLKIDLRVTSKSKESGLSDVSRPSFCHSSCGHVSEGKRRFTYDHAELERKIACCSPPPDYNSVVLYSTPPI

[11] = molecular target: Macrophage-stimulating protein receptor (Homo sapiens, UniProt Q04912); assay: Navigating the Kinome. Panel member name: MST1R; assay type: functional
[12] = molecular target: Tyrosine-protein kinase receptor TYRO3 (Homo sapiens, UniProt Q06418); assay type: functional;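 also: TYRO3 value obtained as one member of a kinome-wide profiling panel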
[13] = molecular target: Insulin-like growth factor 1 receptor (Homo sapiens, UniProt P08069); assay: Navigating the Kinome. Panel member name: IGF1R; assay type: functional
[14] = molecular target: Cyclin-dependent kinase 5 (Homo sapiens, UniProt Q00535); assay type: functional;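 also: CDK5 measured as one member of a kinase profiling panel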
[15] = molecular target: Protein kinase C theta type (Homo sapiens, UniProt Q04759); assay: Navigating the Kinome. Panel member name: PRKCQ; assay type: functional
[16] = molecular target: Leukocyte tyrosine kinase receptor (Homo sapiens, UniProt P29376); assay: Navigating the Kinome. Panel member name: LTK; assay type: functional
Chain of Leukocyte tyrosine kinase receptor (P29376 whole entry): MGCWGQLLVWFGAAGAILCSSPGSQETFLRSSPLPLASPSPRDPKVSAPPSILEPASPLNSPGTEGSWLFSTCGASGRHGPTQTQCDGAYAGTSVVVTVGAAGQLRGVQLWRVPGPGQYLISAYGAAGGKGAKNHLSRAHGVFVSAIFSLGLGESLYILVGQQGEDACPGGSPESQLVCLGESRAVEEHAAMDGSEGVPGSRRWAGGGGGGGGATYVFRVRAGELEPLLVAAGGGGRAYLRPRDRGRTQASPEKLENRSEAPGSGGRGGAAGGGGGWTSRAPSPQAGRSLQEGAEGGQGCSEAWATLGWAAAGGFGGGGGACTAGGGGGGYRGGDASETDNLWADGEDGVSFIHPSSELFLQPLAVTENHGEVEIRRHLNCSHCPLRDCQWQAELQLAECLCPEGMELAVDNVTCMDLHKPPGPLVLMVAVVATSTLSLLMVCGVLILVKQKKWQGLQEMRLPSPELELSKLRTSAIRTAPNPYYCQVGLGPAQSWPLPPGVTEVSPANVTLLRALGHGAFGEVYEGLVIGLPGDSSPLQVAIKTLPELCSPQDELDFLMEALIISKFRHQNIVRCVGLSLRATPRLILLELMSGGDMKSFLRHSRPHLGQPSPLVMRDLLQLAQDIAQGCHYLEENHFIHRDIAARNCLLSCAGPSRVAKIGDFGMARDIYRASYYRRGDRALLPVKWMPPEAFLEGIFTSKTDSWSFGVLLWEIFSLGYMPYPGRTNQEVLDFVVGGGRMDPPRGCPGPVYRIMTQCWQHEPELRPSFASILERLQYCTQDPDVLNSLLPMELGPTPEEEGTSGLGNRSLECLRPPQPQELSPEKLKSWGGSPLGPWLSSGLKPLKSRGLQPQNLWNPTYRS

[17] = molecular target: Tyrosine-protein kinase Lck (Homo sapiens, UniProt P06239); assay type: functional;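 also: lck was assayed as one member of a kinase panel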
[18] = molecular target: Casein kinase I isoform alpha (Homo sapiens, UniProt P48729); assay type: functional
[19] = molecular target: Glycogen synthase kinase-3 alpha (Homo sapiens, UniProt P49840); assay type: functional;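 also: GSK3A result taken from a broad kinome-wide kinase panel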
[20] = molecular target: Mitogen-activated protein kinase 9 (Homo sapiens, UniProt P45984); assay type: functional;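 also: value from a kinome panel profiling assay, MAPK9 panel entry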
Chain of Mitogen-activated protein kinase 9 (P45984 whole entry): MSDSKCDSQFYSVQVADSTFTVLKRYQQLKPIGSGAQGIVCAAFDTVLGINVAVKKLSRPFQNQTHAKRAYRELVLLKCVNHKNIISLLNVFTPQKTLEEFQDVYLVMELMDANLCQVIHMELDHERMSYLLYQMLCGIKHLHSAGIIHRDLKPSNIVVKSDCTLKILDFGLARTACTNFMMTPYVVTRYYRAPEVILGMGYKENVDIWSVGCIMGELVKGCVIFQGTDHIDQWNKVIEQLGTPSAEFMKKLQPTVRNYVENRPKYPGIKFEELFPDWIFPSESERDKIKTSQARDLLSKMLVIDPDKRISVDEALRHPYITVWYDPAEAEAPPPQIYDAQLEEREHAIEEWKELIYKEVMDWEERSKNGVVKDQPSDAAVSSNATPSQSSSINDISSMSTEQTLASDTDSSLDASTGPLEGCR

Focal adhesion kinase 1 = Focal adhesion kinase 1 (Homo sapiens, UniProt Q05397); assay type: functional;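 also: measured as one member of a kinome panel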
Activin receptor type-1 = Activin receptor type-1 (Homo sapiens, UniProt Q04771); assay: Navigating the Kinome. Panel member name: ACVR1; assay type: functional
[21] = molecular target: Hepatocyte growth factor receptor (Homo sapiens, UniProt P08581); assay type: functional;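 also: kinase panel profiling across the kinome, with MET as the panel member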
[22] = molecular target: Tyrosine-protein kinase JAK2 (Homo sapiens, UniProt O60674); assay type: functional;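 also: JAK2 tested as one member of a kinase panel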
[23] = molecular target: Serine/threonine-protein kinase D3 (Homo sapiens, UniProt O94806); assay type: functional;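 also: determined within a kinase panel screen, with PRKCN as the panel member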
[24] = A Cell Based Secondary Assay to Explore Cytotoxicity in THP-1 Cells of Compounds that Modulate Mycobacterium tuberculosis in Media Containing Glycerol versus Media without Glycerol (2).; assay type: functional
[25] = Vero cell cytotoxicity, dose response, cytotoxicity control for M. tuberculosis growth inhibitor project, Vero cells, purified and synthesized compounds, set 5 (AID 504909); assay type: functional; conditions: Mycobacterium tuberculosis
[26] = HepG2 cell cytotoxicity, dose response, cytotoxicity control, set 3 (AID 504853); assay type: functional; conditions: Mycobacterium tuberculosis
[27] = THP-1 cell cytotoxicity, cytotoxicity control, set 4 (AID 504911); assay type: functional; conditions: Mycobacterium tuberculosis
[28] = Vero cell cytotoxicity, cytotoxicity control for M. tuberculosis inhibitor project, purified and synthesized samples, set 3 (AID 504684); assay type: functional
[29] = microbe, parasite or virus in culture; assay type: functional; conditions: Mycobacterium tuberculosis
CAAX prenyl protease 2 = molecular target: T1, CAAX prenyl protease 2 (Homo sapiens, UniProt Q9Y256); assay: inhibition of Ras-converting CAAX protease Rce1 – biochemical, yeast membranes, quenched-peptide fluorescence, cherry-pick, dose response (AID 588849)
T1 sequence (Q9Y256 whole entry): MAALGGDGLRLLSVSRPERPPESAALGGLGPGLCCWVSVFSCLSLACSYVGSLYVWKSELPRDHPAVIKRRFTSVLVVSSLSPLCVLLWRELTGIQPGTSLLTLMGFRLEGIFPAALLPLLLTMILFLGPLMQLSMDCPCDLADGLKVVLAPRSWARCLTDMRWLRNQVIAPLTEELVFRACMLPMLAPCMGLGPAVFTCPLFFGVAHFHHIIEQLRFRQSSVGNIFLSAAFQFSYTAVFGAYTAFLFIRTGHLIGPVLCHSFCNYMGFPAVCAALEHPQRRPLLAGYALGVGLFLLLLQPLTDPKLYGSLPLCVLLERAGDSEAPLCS

[30] = Vero cell cytotoxicity, dose response, cytotoxicity control for M. tuberculosis growth inhibitor project, Vero cells, purified and synthesized compounds, set 4 (AID 504854); assay type: functional; conditions: Mycobacterium tuberculosis
[31] = THP-1 cell cytotoxicity, dose response, cytotoxicity control, set 3 (AID 504852); assay type: functional; conditions: Mycobacterium tuberculosis
[32] = A Cell Based Secondary Assay to Explore Cytotoxicity in HepG2 Cells of Compounds that Modulate Mycobacterium tuberculosis in Media Containing Glycerol versus Media without Glycerol (2).; assay type: functional
CAAX prenyl protease 1 = CAAX prenyl protease 1 (Saccharomyces cerevisiae S288c, UniProt P47154); assay: yeast CAAX protease Ste24 inhibition – biochemical, S. cerevisiae, plate reader, cherry-pick, dose response (AID 488815)
[33] = molecular target: Protein disulfide-isomerase (Homo sapiens, UniProt P07237); assay: inhibition of PDI-driven insulin aggregation – biochemical, turbidity, absorbance, cherry-picked samples, dose response (AID 602350); assay type: functional
[34] = molecular target: T2, High affinity choline transporter 1 (Homo sapiens, UniProt Q9GZV3); assay: human choline transporter potentiators, potency – cell-based, 10-point CRC, membrane potential dye, dose response (AID 602376); assay type: functional
T2 sequence (Q9GZV3 whole entry): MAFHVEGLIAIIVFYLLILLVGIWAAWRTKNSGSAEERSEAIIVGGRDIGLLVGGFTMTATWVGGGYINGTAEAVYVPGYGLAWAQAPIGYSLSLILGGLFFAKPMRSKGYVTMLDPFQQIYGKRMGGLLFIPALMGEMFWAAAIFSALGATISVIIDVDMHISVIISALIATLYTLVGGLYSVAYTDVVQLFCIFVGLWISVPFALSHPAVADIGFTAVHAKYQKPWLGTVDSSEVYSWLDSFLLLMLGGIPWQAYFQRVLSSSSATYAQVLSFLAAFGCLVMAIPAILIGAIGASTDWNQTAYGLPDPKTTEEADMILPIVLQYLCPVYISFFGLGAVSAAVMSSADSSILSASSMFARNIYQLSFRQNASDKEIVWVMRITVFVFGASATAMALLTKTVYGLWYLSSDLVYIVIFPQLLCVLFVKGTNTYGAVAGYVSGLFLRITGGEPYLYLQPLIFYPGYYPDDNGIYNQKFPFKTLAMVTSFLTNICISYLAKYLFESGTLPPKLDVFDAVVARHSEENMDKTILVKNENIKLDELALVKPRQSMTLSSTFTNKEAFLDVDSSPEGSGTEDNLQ

[35] = molecular target: Mitogen-activated protein kinase 13 (Homo sapiens, UniProt O15264); assay type: functional
[36] = molecular target: T3, Neuropeptides B/W receptor type 1 (Homo sapiens, UniProt P48145); assay: human NPBW1 receptor blockade, IC50 – cell-based, fluorescence, dose response, set 6, late-stage follow-up (AID 588583); assay type: functional
T3 sequence (P48145 whole entry): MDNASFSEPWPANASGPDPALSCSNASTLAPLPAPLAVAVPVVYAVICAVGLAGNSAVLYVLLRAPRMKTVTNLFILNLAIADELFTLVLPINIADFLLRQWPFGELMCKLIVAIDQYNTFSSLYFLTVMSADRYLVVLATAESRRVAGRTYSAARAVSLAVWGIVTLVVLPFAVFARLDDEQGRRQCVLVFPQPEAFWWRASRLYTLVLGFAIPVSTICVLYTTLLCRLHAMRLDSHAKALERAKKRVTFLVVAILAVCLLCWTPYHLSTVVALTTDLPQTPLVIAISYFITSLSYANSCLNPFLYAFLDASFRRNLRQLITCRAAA

[37] = molecular target: Melanin-concentrating hormone receptor 1 (Homo sapiens, UniProt Q99705); assay: Late-stage fluorescence-based counterscreen for antagonists of the G-protein coupled receptor 7 (GPR7): cell-based dose response assay to identify antagonists of the melanin-concentrating hormone receptor 1 (MCHR1) Set 6.; assay type: functional
[38] = molecular target: cAMP-dependent protein kinase catalytic subunit alpha (Homo sapiens, UniProt P17612); assay type: functional
Aurora kinase A = Aurora kinase A (Homo sapiens, UniProt O14965); assay type: functional;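 also: value from the Navigating the Kinome kinase panel profiling, panel entry STK6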
Chain of Aurora kinase A (O14965 whole entry): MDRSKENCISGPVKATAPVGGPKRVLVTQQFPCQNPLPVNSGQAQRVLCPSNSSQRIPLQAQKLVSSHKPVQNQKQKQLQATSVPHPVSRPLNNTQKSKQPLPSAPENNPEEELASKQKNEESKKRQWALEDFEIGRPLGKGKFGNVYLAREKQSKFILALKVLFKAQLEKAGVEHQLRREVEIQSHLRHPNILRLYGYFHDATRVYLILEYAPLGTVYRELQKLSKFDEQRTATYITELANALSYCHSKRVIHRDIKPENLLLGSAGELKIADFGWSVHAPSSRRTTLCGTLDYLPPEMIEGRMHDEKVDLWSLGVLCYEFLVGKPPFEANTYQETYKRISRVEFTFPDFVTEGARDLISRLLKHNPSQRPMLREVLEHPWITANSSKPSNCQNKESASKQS

[39] = molecular target: Ribosomal protein S6 kinase alpha-3 (Homo sapiens, UniProt P51812); assay type: functional;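 also: measured within a kinome-wide profiling panel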
Chain of Ribosomal protein S6 kinase alpha-3 (P51812 whole entry): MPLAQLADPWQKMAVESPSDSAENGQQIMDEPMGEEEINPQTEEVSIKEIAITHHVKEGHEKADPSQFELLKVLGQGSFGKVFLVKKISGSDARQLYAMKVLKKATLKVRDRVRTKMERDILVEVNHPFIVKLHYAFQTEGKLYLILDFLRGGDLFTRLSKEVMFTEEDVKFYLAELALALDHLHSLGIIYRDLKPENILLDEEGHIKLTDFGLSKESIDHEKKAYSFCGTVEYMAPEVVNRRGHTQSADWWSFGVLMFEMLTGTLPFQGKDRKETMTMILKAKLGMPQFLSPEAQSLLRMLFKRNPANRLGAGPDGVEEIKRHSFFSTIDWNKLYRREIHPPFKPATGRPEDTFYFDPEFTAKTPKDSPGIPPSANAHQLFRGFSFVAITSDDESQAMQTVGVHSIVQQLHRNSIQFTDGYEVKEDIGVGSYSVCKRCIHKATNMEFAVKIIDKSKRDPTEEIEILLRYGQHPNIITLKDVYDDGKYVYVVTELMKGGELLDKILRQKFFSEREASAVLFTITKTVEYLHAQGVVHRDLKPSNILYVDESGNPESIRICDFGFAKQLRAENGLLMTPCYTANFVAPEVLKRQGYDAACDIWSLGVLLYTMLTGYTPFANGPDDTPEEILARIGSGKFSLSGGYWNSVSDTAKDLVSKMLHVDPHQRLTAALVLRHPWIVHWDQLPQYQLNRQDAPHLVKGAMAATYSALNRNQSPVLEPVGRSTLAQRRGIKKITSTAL

[40] = molecular target: Serine/threonine-protein kinase Chk1 (Homo sapiens, UniProt O14757); assay type: functional;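 also: measured as one member of a kinome-wide kinase profiling panel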
[41] = molecular target: MAP/microtubule affinity-regulating kinase 3 (Homo sapiens, UniProt P27448); assay type: functional;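 also: MARK3 affinity measured as one member of a kinome panel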
Chain of MAP/microtubule affinity-regulating kinase 3 (P27448 whole entry): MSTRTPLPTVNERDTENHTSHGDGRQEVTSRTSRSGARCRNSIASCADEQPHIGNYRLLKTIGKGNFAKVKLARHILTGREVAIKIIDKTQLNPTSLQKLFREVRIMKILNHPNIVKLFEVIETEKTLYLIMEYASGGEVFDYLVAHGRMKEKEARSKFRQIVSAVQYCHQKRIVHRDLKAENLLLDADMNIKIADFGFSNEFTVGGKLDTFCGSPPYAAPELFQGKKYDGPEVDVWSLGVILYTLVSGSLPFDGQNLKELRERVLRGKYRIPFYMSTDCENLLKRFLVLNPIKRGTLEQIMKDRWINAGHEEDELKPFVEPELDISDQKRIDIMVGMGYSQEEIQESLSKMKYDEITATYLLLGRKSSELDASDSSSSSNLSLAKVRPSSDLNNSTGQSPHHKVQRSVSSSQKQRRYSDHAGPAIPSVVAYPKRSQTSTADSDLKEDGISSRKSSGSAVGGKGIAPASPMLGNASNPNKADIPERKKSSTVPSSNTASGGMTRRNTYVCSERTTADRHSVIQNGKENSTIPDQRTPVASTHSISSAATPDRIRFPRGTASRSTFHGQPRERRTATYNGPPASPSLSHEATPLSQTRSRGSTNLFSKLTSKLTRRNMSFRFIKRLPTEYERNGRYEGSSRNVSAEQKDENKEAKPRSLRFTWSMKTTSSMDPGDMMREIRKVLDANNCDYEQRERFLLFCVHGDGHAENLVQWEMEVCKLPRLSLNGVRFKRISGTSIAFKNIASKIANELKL

[42] = molecular target: Serine/threonine-protein kinase Chk2 (Homo sapiens, UniProt O96017); assay type: functional;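 also: CHEK2 entry within a kinome-wide screening panel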
[43] = molecular target: Protein kinase C delta type (Homo sapiens, UniProt Q05655); assay type: functional

SMILES: Nc1ncnc2c1c(-c1cnc3[nH]ccc3c1)nn2C1CCCC1
- Ki [1]: 0.0631 µM (active)
- Ki (LIM domain kinase 1): 0.158 µM (active)
- Ki [2]: > 3.16 µM (inactive)
- Ki [3]: 1 µM (active)
- Ki [4]: 0.1 µM (active)
- Ki [5]: 0.0794 µM (active)
- Ki [6]: 1 µM (active)
- Ki [7]: 0.316 µM (active)
- Ki [8]: 0.2 µM (active)
- Ki [9]: 0.316 µM (active)
- Ki [10]: 0.0631 µM (active)
- Ki [11]: 0.126 µM (active)
- Ki [12]: 0.794 µM (active)
- Ki [13]: 0.398 µM (active)
- Ki [14]: 1.26 µM (active)
- Ki [15]: 0.501 µM (active)
- Ki [16]: 0.158 µM (active)
- Ki [17]: 0.158 µM (active)
- Ki [18]: 0.0398 µM (active)
- Ki [19]: 2 µM (active)
- Ki [20]: 1.26 µM (active)
- Ki (Focal adhesion kinase 1): 1.26 µM (active)
- Ki (Activin receptor type-1): 0.0631 µM (active)
- Ki [21]: > 2.51 µM (inactive)
- Ki [22]: 1 µM (active)
- Ki [23]: 0.251 µM (active)

SMILES: Cc1cc(Br)ccc1NC(=O)c1cnc(N2CCN(c3ccccn3)CC2)c2ccccc12
- CC50 [24]: 86 µM (active)
- CC50 [25]: > 100 µM (active)
- CC50 [26]: > 50 µM (active)
- CC50 [27]: 13.2 µM (active)
- CC50 [28]: 46.3 µM (active)
- CC50 [29]: > 40 µM (active)
- AC50 (CAAX prenyl protease 2): 8.93 µM (active)
- CC50 [30]: 82 µM (active)
- CC50 [31]: 39.8 µM (active)
- CC50 [32]: > 50 µM (active)
- AC50 (CAAX prenyl protease 1): 7.54 µM (active)

SMILES: O=S(=O)(c1ccccc1)N1N=C(c2ccc(O)cc2)CC1c1ccco1 (centres undefined)
- AC50 [33]: 19.5 µM (active)

SMILES: CC(c1ccccc1)N(CCC(c1ccccc1)C1CCOC(C)(C)C1)C(=O)c1ccco1 (centres undefined)
- EC50 [34]: 5.67 µM (active)

SMILES: O=C(Nc1cnccn1)Nc1ccnc2c(F)cccc12
- Ki [35]: > 7.94 µM (inactive)

SMILES: N#Cc1cccc(C(C#N)c2c(Br)cnn(Cc3cccc4ccccc34)c2=O)c1 (centres undefined)
- IC50 [36]: ~0.693 µM (active)
- IC50 [37]: ~0.693 µM (active)

SMILES: CN(C)c1ncnc2nc[nH]c12 [DIMETHYLADENINE]
- Ki [38]: 15.8 µM (active)
- Ki (Aurora kinase A): 3.98 µM (active)
- Ki [39]: 5.01 µM (active)
- Ki [40]: 12.6 µM (active)
- Ki [41]: 5.01 µM (active)
- Ki [42]: 3.98 µM (active)
- Ki [43]: 12.6 µM (active)
